Reference: patent US20100119483A1, “PEPTIDE VIRAL ENTRY INHIBITORS” (Schering Corporation, priority 2004, published 2010)
Where “and” joins values, the source holds several entries; their conditions need not be identical. Identical values can stand only once.

What was measured:
HCV pseudoparticles [1] = experiment: HCV pseudoparticle (HCVpp) entry assay in Huh7 hepatoma cells, luciferase readout; type: cell-based, hepatitis C virus; details: for RLU units: HCVpp
In short: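 Huh7 cells were pre-treated with peptide for 1 h at 37 °C before exposure to HCV E1/E2-pseudotyped HIV luciferase particles made in 293T cells, followed by 72 h culture and luciferase readout. Peptides were tested at 10 points, 3-fold, from 100 ug/ml; particles lacking envelope served as non-specific entry control.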

HIVpp = experiment: HIV pseudotyped virus (HIVpp) entry counter-screen; type: cell-based; details: 1st and 2nd trial
Description: Infection of hepatoma cell lines with HCV pseudotype particles and screen for inhibitory peptides. The hepatoma cells, Huh7, was seeded at 8000 cells in 90 ul medium in 96-well plate. In the case of the inhibitor screen, the inhibitor was incubated with cells for one hour at 37° C. and then 50 ul viral supernatant was added to the cells 24 hours after seeding. The viral stock was pre-tittered and diluted to yield approximately 10,000 to 20,000 RLU. The cells were incubated at 37° C. with 5% CO2 for additional 72 hours and were harvested for luciferase assay. Peptide stocks were prepared in 100% DMSO at 10 mg/ml and were first screened at 100 ug/ml and then a dose responsive curve was generated with 10 points 3-fold titration starting from 100 ug/ml.
The specificity of the peptides were counter-screened with AMLV and HIV pseudotyped viruses using the same infection protocol.
The data points for the dose response curve of peptide […] (SEQ ID NO: 77) are shown below in tables 5A (HCVpp) and 5B (HIVpp). The peptide of SEQ ID NO: 77 was first serial diluted by the factor of 3 in 100% DMSO from 100 ug/ml and then transferred to the assay plates at 100-fold dilution. The peptide was first incubated with cells and HCVpp (A) or HIVpp (B), respectively, for 30 minutes at […] in this experiment. Then, the medium containing the peptide was removed from the cells and virus with peptide was added to the cells. Cells were incubated for 72 hours and then were harvested for luciferase assay. Two separate trials were performed.

HCV pseudoparticles [2] = experiment: HCV pseudoparticle entry assay, anti-CD81 antibody and peptide titrated in a 96-well matrix; type: cell-based, hepatitis C virus; details: HCV entry inhibition, combination
Description: The anti-CD81 antibody and the peptide were titrated in duplicates in a 96-well formatted matrix and tested in an HCV pseudoparticle entry assay. The assays were carried out essentially as described above.
Dose response curves of anti-CD81 antibody with various amounts of peptide were plotted vs. RLU, and the results are summarized below. […] When the peptide was present at 10-30% of its IC50 concentration, the IC50 for anti-CD81 was reduced by 3 to 6-fold. Similarly, when the peptide was present at 1% to 25% of its IC75 concentration, the IC75 for the anti-CD81 antibody was reduced by 3 to 9 fold. Thus, the peptide enhances the potency of the anti-CD81 antibody.

HCV pseudoparticles [3] = experiment: Fusion/attachment experiments with HCV pseudoparticles (4° C. attachment, 37° C. entry); type: cell-based, hepatitis C virus; details: for RLU: single replicates, listed as V-2b
Description: The entry process was allowed to complete after the cells were washed and incubated at 37° C. for 72 hours. If the peptide blocked or interfered with the attachment, few HCVpp particles should bind to the cells and lead to reduced luciferase signal. The peptide had approximately 50% inhibition whereas the anti-CD81 antibody inhibited entry by 20%. Alternatively, an explanation could be that the cell-associated peptide or antibody had no effects on virus attachment, but rather inhibit post-attachment steps, e.g. fusion. When we allowed the HCV pseudoparticles to attach first at 4° C., a nonpermissive temperature for fusion, and added the peptide or anti-CD81 antibody when post-attachment events occurred, anti-CD81 antibody almost inhibited entry by 100%, whereas, the peptide inhibited by approximately 80%.
The incubation scheme for the fusion/attachment experiments is summarized as follows: […]

[4] = A + P (attachment + post attachment)

For “V-S-F-A-I-K-W-E-Y-V-L-L-L-F-L-L [SEQ ID NO: 77]”, the RLU units (HCV pseudoparticles [1]; peptide conc. 0.091515 log ug/ml, 1st and 2nd trial) was 1044 RLU and 833 RLU, the RLU units (HCV pseudoparticles [1]; peptide conc. 0.568636 log ug/ml, 1st and 2nd trial) was 544 RLU and 500 RLU and the RLU units (HCV pseudoparticles [1]; peptide conc. 2 log ug/ml, 1st and 2nd trial) was 11 RLU and 10 RLU. The RLU units (HCV pseudoparticles [1]; peptide conc. not given, 1st trial) was 1494 RLU, the RLU units (HCV pseudoparticles [1]; peptide conc. −0.38561 log ug/ml, 1st and 2nd trial) was 1279 RLU and 1283 RLU and the RLU units (HCV pseudoparticles [1]; peptide conc. −0.86273 log ug/ml, 1st and 2nd trial) was 1866 RLU and 1762 RLU. For the same substance, the RLU units (HCV pseudoparticles [1]; peptide conc. −1.33985 log ug/ml (three lines), 1st and 2nd trial) was 2564 RLU and 2703 RLU and 2998 RLU and 3512 RLU and 2090 RLU and 3359 RLU, the HCVpp % inh (HCV pseudoparticles [1]; peptide library screen, first screened at 100 ug/ml, cell entry inhibition vs uninhibited control) was 96% and the RLU units (HIVpp; peptide conc. 0.091515 log ug/ml) was 674698 RLU and 651004 RLU. For the same substance, the RLU units (HIVpp; peptide conc. 0.568636 log ug/ml) was 561454 RLU and 612198 RLU, the RLU units (HIVpp; peptide conc. 1.045758 log ug/ml) was 740592 RLU and 744482 RLU and the RLU units (HIVpp; peptide conc. 1.522879 log ug/ml) was 787025 RLU and 683636 RLU. The RLU units (HIVpp; peptide conc. 2 log ug/ml) was 435408 RLU and 543239 RLU, the RLU units (HIVpp; peptide conc. −0.38561 log ug/ml) was 732652 RLU and 734586 RLU and the RLU units (HIVpp; peptide conc. −0.86273 log ug/ml) was 676303 RLU and 639921 RLU. The RLU units (HIVpp; peptide conc. −1.33985 log ug/ml) was 815312 RLU and 754404 RLU, the “effect of the peptide on potency of anti-CD81 antibody” value (HCV pseudoparticles [2]) was “enhance the potency of an anti-CD81 antibody” and the “step of HCVpp entry inhibited” value (HCV pseudoparticles [3]) was “largely inhibits a post-attachment step”. The “% control peptide” value (HCV pseudoparticles [3]; A (attachment)) was 39 % control, the “RLU average (peptide)” value (HCV pseudoparticles [3]; A (attachment)) was 5942 RLU and the RLU (HCV pseudoparticles [3]; A (attachment)) was 5196 RLU and 7987 RLU and 4644 RLU. For the same substance, the “% control peptide” value (HCV pseudoparticles [3]; [4]) was 6 % control, the “RLU average (peptide)” value (HCV pseudoparticles [3]; [4]) was 863 RLU and the RLU (HCV pseudoparticles [3]; [4]) was 527 RLU and 1541 RLU and 520 RLU. The inhibition of entry (HCV pseudoparticles [3]; HCV pseudoparticles attached first at 4° C., substance added when post-attachment events occurred) was “approximately 80%”, the “% control peptide” value (HCV pseudoparticles [3]; P (post attachment)) was 11 % control and the “RLU average (peptide)” value (HCV pseudoparticles [3]; P (post attachment)) was 1647 RLU. For the same substance, the RLU (HCV pseudoparticles [3]; P (post attachment)) was 1984 RLU and 2412 RLU and 545 RLU and the inhibition of entry (HCV pseudoparticles [3]; pre-incubated with cells at 4° C., then HCV pseudoparticles at 4° C., washed, 37° C. for 72 hours (attachment)) was “approximately 50%”.
